Laboratory results taken from the CheMixHub ionic liquid set.
± gives the uncertainty stated by the source.

Assay: xn = mol fraction of the nth substance listed

COC(=O)OC + CCCCCCCC[N+](C)(CCCCCCCC)CCCCCCCC.[Cl-]
101 kPa, x1 = 1
Conditions | electrical conductivity [S/m] | viscosity [mPa·s]
298.15 K | 5.2e-05 ± 3e-06 | 0.58 ± 0.02
303.15 K | 5.5e-05 ± 3e-06 | –
308.15 K | 4.9e-05 ± 3e-06 | –
313.15 K | 5.5e-05 ± 3e-06 | 0.45 ± 0.02
318.15 K | 5.2e-05 ± 3e-06 | 0.4 ± 0.02

Cc1ccccc1 + CCCCCCCC[n+]1ccc2ccccc2c1.O=S(=O)([N-]S(=O)(=O)C(F)(F)F)C(F)(F)F
Conditions | viscosity [mPa·s]
308.15 K, 101 kPa, x1 = 1 | 0.5 ± 0.01

c1ccsc1 + CCCCCCCC[n+]1ccc2ccccc2c1.O=S(=O)([N-]S(=O)(=O)C(F)(F)F)C(F)(F)F
Conditions | viscosity [mPa·s]
348.15 K, 101 kPa, x1 = 1 | 0.34 ± 0.01

CCCCCCCCn1cc[n+](C)c1.[Cl-] + CCCCCCCCn1cc[n+](C)c1.F[B-](F)(F)F
101 kPa, x1 = 1
Conditions | electrical conductivity [S/m] | viscosity [mPa·s]
303 K | 0.00213 ± 0.00018 | –
308 K | 0.00353 ± 0.00029 | –
313 K | 0.00562 ± 0.00046 | –
318 K | 0.00861 ± 0.0007 | –
328.15 K | – | 1367 ± 430

Cc1ccccc1 + CCCCCC[N+]1(C)CCCC1.O=S(=O)([N-]S(=O)(=O)C(F)(F)F)C(F)(F)F
Conditions | viscosity [mPa·s]
308.15 K, 100 kPa, x1 = 1 | 0.509 ± 0.012

CCCCCCCCCCCCCC[P+](CCCCCC)(CCCCCC)CCCCCC.O=[N+]([O-])c1cn[n-]c1 + CCCCCC[n+]1ccn(C)c1.O=S(=O)([N-]S(=O)(=O)C(F)(F)F)C(F)(F)F
100 kPa
Conditions | viscosity [mPa·s]
278.15 K, x2 = 0.7 | 830 ± 110
293.15 K, x2 = 0.203 | 790 ± 100

CCC(=O)[O-].CC[NH+]1CCNCC1 + CCCCO
Conditions | viscosity [mPa·s]
313.15 K, 101 kPa, x2 = 0.6004 | 14.05 ± 0.24

CCCCCCCCCCCC[N+](C)(C)Cc1ccccc1.O=S(=O)([N-]S(=O)(=O)C(F)(F)F)C(F)(F)F + CCCCO
101 kPa
Conditions | viscosity [mPa·s]
298.15 K, x1 = 1 | 1425 ± 200
303.15 K, x1 = 0.3015 | 34.1 ± 3.4
308.15 K, x1 = 0.3015 | 27.3 ± 2.7
308.15 K, x1 = 1 | 683 ± 88
313.15 K, x1 = 0.7485 | 198 ± 22
318.15 K, x1 = 0.1507 | 7.45 ± 0.75
318.15 K, x1 = 0.4494 | 37.6 ± 3.8
328.15 K, x1 = 0.9164 | 159 ± 17
333.15 K, x1 = 0.1507 | 4.83 ± 0.48
333.15 K, x1 = 0.4494 | 20.6 ± 2.1
333.15 K, x1 = 0.594 | 40.9 ± 4.1
338.15 K, x1 = 0.7485 | 63 ± 6.3
338.15 K, x1 = 1 | 118 ± 12
343.15 K, x1 = 0.7485 | 52.4 ± 5.3
348.15 K, x1 = 0.594 | 25.2 ± 2.5

FC1CC(F)(F)C(F)(F)C1(F)F (stereo not given) + CCCC[N+]1(C)CCCC1.FC(F)(F)C(F)(F)[P-](F)(F)(F)(C(F)(F)C(F)(F)F)C(F)(F)C(F)(F)F
101 kPa
Conditions | electrical conductivity [S/m] | viscosity [mPa·s]
298.1 K, x2 = 0 | – | 1.65 ± 0.07
298.1 K, x2 = 0.252 | – | 8.05 ± 0.36
298.1 K, x2 = 0.438 | – | 21.3 ± 0.9
298.1 K, x2 = 0.653 | 0.275 ± 0.006 | –
298.1 K, x2 = 0.842 | 0.167 ± 0.003 | –
303 K, x2 = 0.177 | 0.746 ± 0.015 | –
303 K, x2 = 0.434 | 0.424 ± 0.008 | –
303 K, x2 = 0.839 | 0.21 ± 0.004 | –
303 K, x2 = 0.844 | – | 87.6 ± 3.9
308.1 K, x2 = 0.077 | 0.594 ± 0.012 | –
313 K, x2 = 0.183 | 0.88 ± 0.018 | –
318.1 K, x2 = 0.077 | 0.699 ± 0.014 | –
318.1 K, x2 = 0.437 | – | 11.2 ± 0.46
318.1 K, x2 = 0.836 | 0.359 ± 0.007 | –
323 K, x2 = 0.655 | – | 21.17 ± 0.87

Cc1ccccc1 + CCCC[N+]1(C)CCCC1.O=S(=O)([N-]S(=O)(=O)C(F)(F)F)C(F)(F)F
Conditions | viscosity [mPa·s]
308.15 K, 100 kPa, x1 = 1 | 0.509 ± 0.012

OC[C@H]1O[C@@](CO)(O[C@H]2O[C@H](CO)[C@@H](O)[C@H](O)[C@H]2O)[C@@H](O)[C@@H]1O + CCCC[N+](C)(CCCC)CCCC.[Cl-] + O
viscosity [mPa·s], 101.3 kPa
Conditions | x1 = 0.0003585, x2 = 0 | x1 = 0.0007185, x2 = 0 | x1 = 0.001078, x2 = 0 | x1 = 0.00144, x2 = 0 | x1 = 0.001799, x2 = 0 | x1 = 0.002163, x2 = 0 | x1 = 0.002507, x2 = 0
293.15 K | 1.016 ± 0.016 | 1.038 ± 0.016 | 1.059 ± 0.016 | 1.081 ± 0.016 | 1.094 ± 0.016 | 1.112 ± 0.016 | 1.133 ± 0.016
298.15 K | 0.906 ± 0.016 | 0.921 ± 0.016 | 0.935 ± 0.016 | 0.957 ± 0.016 | 0.972 ± 0.016 | 0.987 ± 0.016 | 1.006 ± 0.016
303.15 K | 0.807 ± 0.015 | 0.817 ± 0.015 | 0.83 ± 0.015 | 0.847 ± 0.015 | 0.861 ± 0.015 | 0.878 ± 0.015 | 0.891 ± 0.015
308.15 K | 0.725 ± 0.015 | 0.733 ± 0.015 | 0.745 ± 0.015 | 0.759 ± 0.015 | 0.772 ± 0.015 | 0.786 ± 0.015 | 0.8 ± 0.015
313.15 K | 0.657 ± 0.015 | 0.664 ± 0.015 | 0.674 ± 0.015 | 0.683 ± 0.015 | 0.697 ± 0.015 | 0.71 ± 0.015 | 0.721 ± 0.015

CCCCCCCCCC(=O)O + CCCC[N+](CCCC)(CCCC)CCCC.[Cl-]
100 kPa
Conditions | electrical conductivity, x2 = 0.25 [S/m] | viscosity, x2 = 0.25 [mPa·s] | viscosity, x2 = 0.333 [mPa·s]
293.15 K | 0.00575 ± 0.00058 | 201 ± 37 | –
303.15 K | 0.00886 ± 0.00089 | 135 ± 18 | –
313.15 K | 0.0133 ± 0.0013 | 93.3 ± 7.8 | 155 ± 18
323.15 K | 0.0194 ± 0.0019 | 65.9 ± 2.6 | –
333.15 K | 0.0277 ± 0.0028 | 47.5 ± 1.6 | –
343.15 K | – | – | 39.5 ± 1.9

CCCCCC(=O)O.CCCCCC(=O)[O-].CC[NH+](CC)CCO + CCCC[n+]1ccn(C)c1.COP(=O)([O-])OC
101 kPa
Conditions | viscosity [mPa·s]
278.15 K, x1 = 0.2213 | 768 ± 30
278.15 K, x1 = 0.6088 | 295.3 ± 8.6
283.15 K, x1 = 0.0684 | 1280 ± 58
283.15 K, x1 = 0.4995 | 242.5 ± 6.4
283.15 K, x1 = 0.7258 | 185.3 ± 4.6
288.15 K, x1 = 0.2213 | 362 ± 11
288.15 K, x1 = 0.3088 | 259.7 ± 6.8
288.15 K, x1 = 1 | 100.1 ± 2.3
293.15 K, x1 = 0.4995 | 130.7 ± 2.7
293.15 K, x1 = 0.8535 | 90.5 ± 1.9
298.15 K, x1 = 0.2213 | 190.1 ± 4.2
298.15 K, x1 = 0.3088 | 140.8 ± 2.8
303.15 K, x1 = 0.2213 | 142.4 ± 2.8
303.15 K, x1 = 0.6088 | 68.7 ± 1.3
303.15 K, x1 = 1 | 47.5 ± 1
308.15 K, x1 = 0.1429 | 147.9 ± 2.9
313.15 K, x1 = 0.0684 | 157 ± 3
313.15 K, x1 = 0.3088 | 65.2 ± 1
318.15 K, x1 = 0.3966 | 43.87 ± 0.71
318.15 K, x1 = 0.8535 | 29.04 ± 0.58
323.15 K, x1 = 0.3966 | 35.8 ± 0.58
328.15 K, x1 = 0.4995 | 26.14 ± 0.44
328.15 K, x1 = 1 | 17.75 ± 0.38
338.15 K, x1 = 0.0684 | 48.21 ± 0.64
338.15 K, x1 = 0.2213 | 30.03 ± 0.44
338.15 K, x1 = 1 | 12.81 ± 0.27
343.15 K, x1 = 0.0684 | 39.73 ± 0.53
343.15 K, x1 = 0.2213 | 25.3 ± 0.37
343.15 K, x1 = 0.3088 | 20.61 ± 0.32
348.15 K, x1 = 1 | 9.52 ± 0.2
353.15 K, x1 = 0.2213 | 18.5 ± 0.27
353.15 K, x1 = 0.4995 | 11.83 ± 0.2
353.15 K, x1 = 0.7258 | 10.11 ± 0.19
353.15 K, x1 = 1 | 8.28 ± 0.18
358.15 K, x1 = 0.2213 | 16.02 ± 0.23
358.15 K, x1 = 1 | 7.24 ± 0.16
368.15 K, x1 = 0.3966 | 9.02 ± 0.15
373.15 K, x1 = 0.2213 | 10.88 ± 0.16
